Our source for the inhibition values is US9302988B2, “Fluoromethyl-substituted pyrrole carboxamides” (GRÜNENTHAL GMBH, priority 2012, dated 2016).

The experiment concerns the target T1, Human CaV2.2 channels (Homo sapiens, UniProt Q00975).
T1 construct: expressed in transfected cells
As to the kind of experiment: Fluorescent assay for CaV2.2 channels using potassium depolarization to induce channel opening (FLIPR, Fluo-4). Type of experiment: cell-based. As to conditions: 3 μM test compound, 30 mM KCl, HEK293 cells stably expressing human CaV2.2; read-out: %-Inhib (CaV2.2) @3 μM @30 mM KCl. A digest of the protocol: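 HEK293 cells stably co-expressing CaV2.2 with α2δ and β subunits plus Kir2.3 were Fluo-4 loaded, then preincubated 15 min at 25 °C with compound in 30 mM KCl buffer, pH 7.4. Depolarization was by adding buffer containing 210 mM KCl. Inhibition was taken from baseline-normalized peak fluorescence amplitude (ex 480/em 535 nm).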

T1 sequence (Q00975 whole entry): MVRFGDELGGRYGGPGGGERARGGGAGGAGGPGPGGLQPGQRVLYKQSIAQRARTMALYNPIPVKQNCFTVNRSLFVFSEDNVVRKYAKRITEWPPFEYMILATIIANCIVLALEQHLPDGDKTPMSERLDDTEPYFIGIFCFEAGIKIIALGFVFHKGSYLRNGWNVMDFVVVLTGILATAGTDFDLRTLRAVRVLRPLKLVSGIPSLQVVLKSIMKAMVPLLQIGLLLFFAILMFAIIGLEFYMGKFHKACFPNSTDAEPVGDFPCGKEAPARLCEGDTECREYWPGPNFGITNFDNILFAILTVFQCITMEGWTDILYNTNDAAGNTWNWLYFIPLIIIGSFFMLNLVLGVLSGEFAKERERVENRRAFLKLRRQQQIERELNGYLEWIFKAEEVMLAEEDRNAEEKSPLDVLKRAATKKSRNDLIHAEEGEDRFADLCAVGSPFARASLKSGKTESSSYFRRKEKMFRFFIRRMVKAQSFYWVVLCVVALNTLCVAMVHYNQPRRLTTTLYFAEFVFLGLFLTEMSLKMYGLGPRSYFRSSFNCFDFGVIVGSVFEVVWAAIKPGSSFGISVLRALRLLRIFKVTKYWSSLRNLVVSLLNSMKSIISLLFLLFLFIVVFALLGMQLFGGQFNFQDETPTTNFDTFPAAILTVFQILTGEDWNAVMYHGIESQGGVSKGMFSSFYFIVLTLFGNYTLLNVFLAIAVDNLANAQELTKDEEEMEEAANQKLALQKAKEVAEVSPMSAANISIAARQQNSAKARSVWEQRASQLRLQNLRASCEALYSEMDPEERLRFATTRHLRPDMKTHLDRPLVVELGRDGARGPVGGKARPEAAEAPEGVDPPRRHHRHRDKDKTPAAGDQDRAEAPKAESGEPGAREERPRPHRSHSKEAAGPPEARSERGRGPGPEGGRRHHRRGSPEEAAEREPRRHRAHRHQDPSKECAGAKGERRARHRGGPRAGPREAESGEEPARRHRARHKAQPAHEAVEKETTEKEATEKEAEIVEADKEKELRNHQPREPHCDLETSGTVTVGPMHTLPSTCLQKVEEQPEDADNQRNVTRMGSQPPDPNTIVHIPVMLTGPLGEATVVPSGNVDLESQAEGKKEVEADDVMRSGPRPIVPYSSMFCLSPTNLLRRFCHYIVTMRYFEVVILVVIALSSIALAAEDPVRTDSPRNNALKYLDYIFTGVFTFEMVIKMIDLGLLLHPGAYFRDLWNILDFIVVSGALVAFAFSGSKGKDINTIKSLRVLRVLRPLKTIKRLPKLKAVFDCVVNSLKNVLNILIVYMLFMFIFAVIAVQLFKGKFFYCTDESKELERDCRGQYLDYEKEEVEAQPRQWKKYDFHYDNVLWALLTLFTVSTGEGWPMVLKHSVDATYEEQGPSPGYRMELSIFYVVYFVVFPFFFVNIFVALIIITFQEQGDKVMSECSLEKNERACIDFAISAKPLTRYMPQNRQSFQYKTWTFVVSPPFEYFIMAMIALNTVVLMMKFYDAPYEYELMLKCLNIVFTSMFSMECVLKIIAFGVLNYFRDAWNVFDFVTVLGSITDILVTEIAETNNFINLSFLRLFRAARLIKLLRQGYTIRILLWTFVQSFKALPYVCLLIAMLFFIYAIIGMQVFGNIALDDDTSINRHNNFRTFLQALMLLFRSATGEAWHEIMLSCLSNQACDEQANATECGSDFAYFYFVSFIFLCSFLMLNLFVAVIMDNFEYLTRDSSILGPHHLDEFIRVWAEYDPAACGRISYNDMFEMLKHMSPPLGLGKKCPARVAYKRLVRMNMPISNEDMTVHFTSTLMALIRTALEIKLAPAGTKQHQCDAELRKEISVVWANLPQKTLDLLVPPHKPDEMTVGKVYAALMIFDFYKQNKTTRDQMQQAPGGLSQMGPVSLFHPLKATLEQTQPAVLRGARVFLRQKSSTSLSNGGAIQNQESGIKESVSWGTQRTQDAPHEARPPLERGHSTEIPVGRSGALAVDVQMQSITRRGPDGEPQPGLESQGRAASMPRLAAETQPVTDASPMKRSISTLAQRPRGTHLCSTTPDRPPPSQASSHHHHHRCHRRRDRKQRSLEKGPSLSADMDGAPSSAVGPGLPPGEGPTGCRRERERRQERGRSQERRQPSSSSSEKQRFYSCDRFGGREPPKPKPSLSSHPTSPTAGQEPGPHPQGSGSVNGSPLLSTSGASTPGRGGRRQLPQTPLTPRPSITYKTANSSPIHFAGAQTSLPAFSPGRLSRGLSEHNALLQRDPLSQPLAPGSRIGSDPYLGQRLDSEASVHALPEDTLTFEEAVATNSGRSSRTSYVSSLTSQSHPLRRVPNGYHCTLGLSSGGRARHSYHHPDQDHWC
T1 sequence (P54289 25-1103, further chain): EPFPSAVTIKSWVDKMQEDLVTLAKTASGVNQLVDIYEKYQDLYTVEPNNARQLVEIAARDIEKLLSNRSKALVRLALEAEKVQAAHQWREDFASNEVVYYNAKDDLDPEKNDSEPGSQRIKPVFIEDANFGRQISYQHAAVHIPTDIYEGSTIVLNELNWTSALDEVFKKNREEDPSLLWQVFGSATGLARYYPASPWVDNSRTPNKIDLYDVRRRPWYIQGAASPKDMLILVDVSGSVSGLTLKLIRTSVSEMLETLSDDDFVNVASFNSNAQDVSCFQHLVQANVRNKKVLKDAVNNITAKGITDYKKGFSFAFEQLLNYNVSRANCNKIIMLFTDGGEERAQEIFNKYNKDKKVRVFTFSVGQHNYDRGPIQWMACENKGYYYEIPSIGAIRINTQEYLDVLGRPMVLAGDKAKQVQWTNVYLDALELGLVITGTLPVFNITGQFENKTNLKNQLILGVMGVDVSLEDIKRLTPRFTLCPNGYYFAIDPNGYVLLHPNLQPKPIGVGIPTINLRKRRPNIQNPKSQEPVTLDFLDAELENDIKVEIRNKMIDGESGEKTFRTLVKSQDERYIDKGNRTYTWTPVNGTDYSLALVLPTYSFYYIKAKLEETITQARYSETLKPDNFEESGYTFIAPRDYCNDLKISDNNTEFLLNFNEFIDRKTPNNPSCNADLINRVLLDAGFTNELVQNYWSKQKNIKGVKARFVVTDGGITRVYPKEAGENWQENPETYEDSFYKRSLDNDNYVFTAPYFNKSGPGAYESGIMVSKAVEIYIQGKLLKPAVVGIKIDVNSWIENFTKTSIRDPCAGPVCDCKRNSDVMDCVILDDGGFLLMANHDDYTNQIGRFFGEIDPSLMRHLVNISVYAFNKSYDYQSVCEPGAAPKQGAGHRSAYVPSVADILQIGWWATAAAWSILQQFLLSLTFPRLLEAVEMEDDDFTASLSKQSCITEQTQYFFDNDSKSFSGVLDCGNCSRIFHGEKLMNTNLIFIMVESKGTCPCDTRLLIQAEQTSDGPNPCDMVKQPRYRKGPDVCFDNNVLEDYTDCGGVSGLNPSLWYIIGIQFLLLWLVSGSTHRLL
T1 sequence (P54284 whole entry, further chain): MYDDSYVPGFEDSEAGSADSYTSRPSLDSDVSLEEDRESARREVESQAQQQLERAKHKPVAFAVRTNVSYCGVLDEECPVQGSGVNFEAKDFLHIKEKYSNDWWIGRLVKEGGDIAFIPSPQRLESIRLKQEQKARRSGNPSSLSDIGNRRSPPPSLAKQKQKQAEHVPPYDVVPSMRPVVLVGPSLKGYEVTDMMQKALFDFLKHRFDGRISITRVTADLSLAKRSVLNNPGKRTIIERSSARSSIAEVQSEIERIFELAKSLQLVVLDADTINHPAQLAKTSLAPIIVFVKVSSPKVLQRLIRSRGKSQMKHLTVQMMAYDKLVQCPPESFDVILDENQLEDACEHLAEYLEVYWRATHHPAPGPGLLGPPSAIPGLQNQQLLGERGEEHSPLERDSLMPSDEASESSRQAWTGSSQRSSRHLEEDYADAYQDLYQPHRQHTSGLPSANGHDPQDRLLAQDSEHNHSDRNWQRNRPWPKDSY

Turning to `Cc1c(-c2ccc(C(F)(F)F)cc2)c(C(=O)N2CC(F)(F)C2)n(Cc2ccccc2)c1C(F)(F)F` [SC-96, [1-Benzyl-4-methyl-5-(trifluoromethyl)-3-[4-(trifluoromethyl)-phenyl]-1H-pyrrol-2-yl]-(3,3-difluoro-azetidin-1-yl)-methanone], the inhibition at 3 µM lay in the range of 40 to 75%.

As to `CN(CCC(C)(C)C)C(=O)c1c(-c2ccc(Cl)cc2)cc(C(F)(F)F)n1Cc1ccccc1` [SC-84, 1-Benzyl-3-(4-chlorophenyl)-N-(3,3-dimethyl-butyl)-N-methyl-5-(trifluoromethyl)-1H-pyrrole-2-carboxylic acid amide], the inhibition at 3 µM fell in the range of 40 to 75%.

For the compound `O=C(c1c(-c2ccc(Cl)cc2)cc(C(F)(F)F)n1Cc1ccccc1)N1CCS(=O)(=O)CC1` [SC-196, [1-Benzyl-3-(4-chlorophenyl)-5-(trifluoromethyl)-1H-pyrrol-2-yl]-(1,1-dioxo-[1,4]thiazinan-4-yl)-methanone], the inhibition at 3 µM is greater than 95%.

Consider `Cc1c(-c2ccc(Cl)cc2)c(C(=O)N2CCOCC2)n(Cc2ccccc2)c1C(F)F` [SC-41, [1-Benzyl-3-(4-chlorophenyl)-5-(difluoro-methyl)-4-methyl-1H-pyrrol-2-yl]-morpholin-4-yl-methanone], for which the inhibition at 3 µM is greater than 95%.

Regarding `CNC(=O)c1c(-c2ccc(Cl)cc2)c(C)c(C(F)(F)F)n1Cc1ccccc1` [SC-22, 1-Benzyl-3-(4-chlorophenyl)-N,4-dimethyl-5-(trifluoromethyl)-1H-pyrrole-2-carboxylic acid amide], the inhibition at 3 µM was in the range of 75 to 95%.

For the compound `Cc1c(-c2ccc(Cl)cc2)c(C(=O)N2CC(S(C)(=O)=O)C2)n(Cc2ccccc2)c1C(F)(F)F` [SC-137, [1-Benzyl-3-(4-chlorophenyl)-4-methyl-5-(trifluoromethyl)-1H-pyrrol-2-yl]-(3-methylsulfonyl-azetidin-1-yl)-methanone], the inhibition at 3 µM was in the range of 75 to 95%.

As for `CN(CC1(C)COC1)C(=O)c1c(-c2ccc(Cl)cc2)cc(C(F)(F)F)n1Cc1ccccc1` [SC-78, 1-Benzyl-3-(4-chlorophenyl)-N-methyl-N-[(3-methyl-oxetan-3-yl)-methyl]-5-(trifluoromethyl)-1H-pyrrole-2-carboxylic acid amide], the inhibition at 3 µM was greater than 95%.

Regarding `Cc1c(-c2ccc(OC(F)(F)F)cc2)c(C(=O)N(C)CC(C)(C)C)n(Cc2ccccc2)c1C(F)(F)F` [SC-240, 1-Benzyl-N-(2,2-dimethyl-propyl)-N,4-dimethyl-5-(trifluoromethyl)-3-[4-(trifluoromethyloxy)-phenyl]-1H-pyrrole-2-carboxylic acid amide], the inhibition at 3 µM was in the range of 30 to 40%.

For the compound `Cc1c(-c2ccc(Cl)cc2)c(C(=O)N(C)Cc2ccnc(N(C)C)n2)n(Cc2ccccc2)c1C(F)(F)F` [SC-147, 1-Benzyl-3-(4-chlorophenyl)-N-[(2-dimethylamino-pyrimidin-4-yl)-methyl]-N,4-dimethyl-5-(trifluoromethyl)-1H-pyrrole-2-carboxylic acid amide], the inhibition at 3 µM was in the range of 75 to 95%.

Consider `Cc1c(-c2ccc(C(F)(F)F)cc2)c(C(=O)N(C)CCS(C)(=O)=O)n(Cc2ccccc2)c1C(F)(F)F` [SC-228, 1-Benzyl-N,4-dimethyl-N-(2-methylsulfonyl-ethyl)-5-(trifluoromethyl)-3-[4-(trifluoromethyl)-phenyl]-1H-pyrrole-2-carboxylic acid amide], for which the inhibition at 3 µM fell in the range of 75 to 95%.

With `Cc1c(-c2ccc(Cl)cc2F)c(C(=O)N(C)CC(C)(C)S(C)(=O)=O)n(Cc2ccccc2)c1C(F)(F)F` [SC-168, 1-Benzyl-3-(4-chloro-2-fluoro-phenyl)-N,4-dimethyl-N-(2-methyl-2-methylsulfonyl-propyl)-5-(trifluoromethyl)-1H-pyrrole-2-carboxylic acid amide], the inhibition at 3 µM is greater than 95%.

Consider `O=C(c1c(-c2ccc(Cl)cc2)cc(C(F)(F)F)n1Cc1ccccc1)N1CCn2ccnc2C1` [SC-217, [1-Benzyl-3-(4-chlorophenyl)-5-(trifluoromethyl)-1H-pyrrol-2-yl]-(5,6,7,8-tetrahydro-imidazo[1,2-a]pyrazin-7-yl)-methanone], for which the inhibition at 3 µM is greater than 95%.

Consider `Cc1c(-c2ccc(C(F)(F)F)cc2)c(C(=O)N2CCOCC2)n(Cc2ccccc2)c1C(F)(F)F` [SC-102, [1-Benzyl-4-methyl-5-(trifluoromethyl)-3-[4-(trifluoromethyl)-phenyl]-1H-pyrrol-2-yl]-morpholin-4-yl-methanone], for which the inhibition at 3 µM was 75 to 95%.

`Cc1c(-c2ccc(Cl)cc2)c(C(=O)N2CCNC(=O)C2)n(Cc2ccccc2)c1C(F)(F)F` [SC-08, 4-[1-Benzyl-3-(4-chlorophenyl)-4-methyl-5-(trifluoromethyl)-1H-pyrrole-2-carbonyl]-piperazin-2-one]: the inhibition at 3 µM was 75 to 95%.

As to `Cc1c(-c2ccc(C(F)(F)F)cc2)c(C(=O)N2CCOC(C)(C)C2)n(Cc2ccccc2)c1C(F)(F)F` [SC-234, [1-Benzyl-4-methyl-5-(trifluoromethyl)-3-[4-(trifluoromethyl)-phenyl]-1H-pyrrol-2-yl]-(2,2-dimethyl-morpholin-4-yl)-methanone], the inhibition at 3 µM lay within 75 to 95%.

With `CC(CS(C)(=O)=O)N(C)C(=O)c1c(-c2ccc(Cl)cc2)cc(C(F)(F)F)n1Cc1ccccc1` (stereo not shown) [SC-198, 1-Benzyl-3-(4-chlorophenyl)-N-methyl-N-(1-methyl-2-methylsulfonyl-ethyl)-5-(trifluoromethyl)-1H-pyrrole-2-carboxylic acid amide], the inhibition at 3 µM was greater than 95%.

`Cc1c(-c2ccc(Cl)cc2)c(C(=O)NC2CCOCC2)n(Cc2ccccc2)c1C(F)(F)F` [SC-10, 1-Benzyl-3-(4-chlorophenyl)-4-methyl-N-tetrahydro-pyran-4-yl-5-(trifluoromethyl)-1H-pyrrole-2-carboxylic acid amide]: the inhibition at 3 µM was 75 to 95%.

On to `CN(Cc1cnc(N(C)C)nc1)C(=O)c1c(-c2ccc(Cl)cc2)cc(C(F)(F)F)n1Cc1ccccc1` [SC-216, 1-Benzyl-3-(4-chlorophenyl)-N-[(2-dimethylamino-pyrimidin-5-yl)-methyl]-N-methyl-5-(trifluoromethyl)-1H-pyrrole-2-carboxylic acid amide], for which the inhibition at 3 µM lay in the range of 75 to 95%.

With `CN(C(=O)c1c(-c2ccc(Cl)cc2)cc(C(F)(F)F)n1Cc1ccccc1)C1CCOCC1` [SC-73, 1-Benzyl-3-(4-chlorophenyl)-N-methyl-N-tetrahydro-pyran-4-yl-5-(trifluoromethyl)-1H-pyrrole-2-carboxylic acid amide], the inhibition at 3 µM was greater than 95%.

As for `Cc1c(-c2ccc(Cl)cc2F)c(C(=O)N[C@H](C)C(C)(C)C)n(Cc2ccccc2)c1C(F)(F)F` [SC-158, 1-Benzyl-3-(4-chloro-2-fluoro-phenyl)-4-methyl-5-(trifluoromethyl)-N-[(1R)-1,2,2-trimethyl-propyl]-1H-pyrrole-2-carboxylic acid amide], the inhibition at 3 µM lay within 75 to 95%.

For the compound `Cc1c(-c2ccc(Cl)cc2)c(C(=O)N(C)C2CC2)n(Cc2ccccc2)c1C(F)(F)F` [SC-34, 1-Benzyl-3-(4-chlorophenyl)-N-cyclopropyl-N,4-dimethyl-5-(trifluoromethyl)-1H-pyrrole-2-carboxylic acid amide], the inhibition at 3 µM was greater than 95%.

In the case of `Cc1c(-c2ccc(Cl)cc2)c(C(=O)N(C)CC2CCOCC2)n(Cc2ccccc2)c1C(F)(F)F` [SC-21, 1-Benzyl-3-(4-chlorophenyl)-N,4-dimethyl-N-(tetrahydro-pyran-4-yl-methyl)-5-(trifluoromethyl)-1H-pyrrole-2-carboxylic acid amide], the inhibition at 3 µM was greater than 95%.
